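Tested at 5 concentrations; 48 h exposure; 96-well plates; endpoints linearly interpolated, else capped at highest concentration. GI50 = concentration required for 50% inhibition of growth. TGI is the concentration that stops growth completely.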
How the values were obtained:
Assay in all cases: NCI anticancer screen, dose series, 48 h
EKVX NSCLC = tested on: EKVX NSCLC
SNB-75 CNS = tested on: SNB-75 CNS
OVCAR-5 ovarian = tested on: OVCAR-5 ovarian
SNB-19 CNS = tested on: SNB-19 CNS
K-562 leukemia = tested on: K-562 leukemia
HOP-62 NSCLC = tested on: HOP-62 NSCLC
COLO 205 colon = tested on: COLO 205 colon
OVCAR-8 ovarian = tested on: OVCAR-8 ovarian
HCC-2998 colon = tested on: HCC-2998 colon
SR leukemia = tested on: SR leukemia

| Structure (SMILES) | TGI (EKVX NSCLC) | TGI (SNB-75 CNS) | TGI (OVCAR-5 ovarian) | TGI (SNB-19 CNS) | TGI (K-562 leukemia) | TGI (HOP-62 NSCLC) | TGI (COLO 205 colon) | TGI (OVCAR-8 ovarian) | TGI (HCC-2998 colon) | TGI (SR leukemia) | GI50 (K-562 leukemia) | GI50 (SR leukemia) |
| --- | --- | --- | --- | --- | --- | --- | --- | --- | --- | --- | --- | --- |
| NNC(=O)CCCCCCCC(=O)O | > 100 µM | > 100 µM | > 100 µM | > 100 µM | > 100 µM | > 100 µM | > 100 µM | > 100 µM | > 100 µM | > 100 µM |  |  |
| COC(=O)c1ccc(NCC2=CC(=O)c3ccccc3C2=O)cc1 | 66.5 µM | 46.8 µM | 49.5 µM | 99.7 µM | 32.2 µM | 34.7 µM | 31.6 µM | > 100 µM | > 63.3 µM | 39.4 µM |  |  |
| N#C[C@](CO)(NC(=O)OCc1ccccc1)C(F)F | > 100 µM | > 100 µM | > 100 µM | > 100 µM | > 100 µM | > 100 µM | > 100 µM | > 100 µM | > 100 µM | > 100 µM |  |  |
| OCC1CCCCN1Cc1nc2ccc(Cl)cc2[nH]1 (configuration not stated) | > 100 µM | > 100 µM | > 100 µM | > 100 µM | > 100 µM | > 100 µM | > 100 µM | > 100 µM | > 100 µM | > 100 µM |  |  |
| COc1cc(/C=C/C(=O)O)ccc1O | > 100 µM | > 100 µM | > 100 µM | > 100 µM | > 100 µM | > 100 µM | > 100 µM | > 100 µM | > 100 µM | > 100 µM |  |  |
| C=C(Br)C(Cl)(CBr)CCC(Br)C(C)(C)Cl (configuration not stated) | > 10 µM | > 10 µM | > 10 µM | > 10 µM | > 10 µM | > 10 µM | > 10 µM | > 10 µM | > 10 µM | > 10 µM |  |  |
| COc1ccc(/C=N/n2c(Cc3ccc(Cl)cc3)n[nH]c2=O)cc1 | > 100 µM | 38.5 µM | > 100 µM | 35.6 µM | > 100 µM | 33.9 µM | > 100 µM | 74.6 µM | > 100 µM | > 100 µM |  |  |
| O=C(CN=C(CN(c1ccccc1)c1ccccc1)Oc1c([N+](=O)[O-])cc([N+](=O)[O-])cc1[N+](=O)[O-])N1CCNCC1 | > 100 µM | > 100 µM | > 100 µM | > 100 µM | > 100 µM | > 100 µM | > 100 µM | > 100 µM | > 100 µM | > 100 µM |  |  |
| CSc1cc(Cl)c(C)cc1S(=O)(=O)NC(=O)NNc1ccccn1 | > 100 µM | > 100 µM | > 100 µM | > 100 µM | > 100 µM | > 100 µM | > 100 µM | > 100 µM | > 100 µM | > 100 µM |  |  |
| O=C(c1ccco1)N1CCN(C(=O)c2ccco2)C1=S | 36.7 µM | 26.2 µM | 39.8 µM | > 79.5 µM | 16.5 µM | 33.1 µM | 21.2 µM | 62.5 µM | 25.7 µM | 12.1 µM |  |  |
| CCOC(=O)C1(Cc2ccccc2)CCN(C(=O)c2ccccc2)C2C1C2(Cl)Cl (configuration not stated) | 71.7 µM | 62.6 µM | 98.4 µM | > 100 µM | > 100 µM | 87.2 µM | 35.9 µM | 77.4 µM | 30.5 µM | 69.7 µM |  |  |
| O=S(=O)(NC(c1ccccc1)(c1cc2ccccc2[nH]1)c1cc2ccccc2n1S(=O)(=O)c1ccccc1)c1ccccc1 (configuration not stated) | > 100 µM | > 100 µM | > 100 µM | > 100 µM | > 100 µM | > 100 µM | > 100 µM | > 100 µM | > 100 µM | > 100 µM |  |  |
| C/C=C/[C@@H]1O[C@H](CC#C[Si](C)(C)C)[C@@]2(C=O)C(C)=CC[C@H](C(C)C)[C@@H]12 | 41 µM | 54.1 µM | 40.2 µM | 62.3 µM | > 100 µM | 82.7 µM | 66.1 µM | > 100 µM | 36.5 µM | 56.3 µM |  |  |
| CCOC(=O)c1cc2cc(CSc3ccccc3)ccc2oc1=O | > 100 µM | > 100 µM | > 100 µM | > 100 µM | > 100 µM | > 100 µM | > 100 µM | > 100 µM | > 100 µM | > 100 µM |  |  |
| O=S(=O)(O)Nc1ccc(-c2nc3ccccc3s2)cc1Cl | > 100 µM | > 100 µM | > 100 µM | > 100 µM | > 100 µM | > 100 µM | > 100 µM | > 100 µM | > 100 µM | > 100 µM |  |  |
| N#Cc1nsnc1-c1nc(-c2nsnc2C#N)nc(-c2nsnc2C#N)n1 | > 100 µM | > 100 µM | > 100 µM | > 100 µM | > 100 µM | > 100 µM | > 100 µM | > 100 µM | > 100 µM | > 100 µM |  |  |
| C(/C=N/NC1=NCCN1)=N\NC1=NCCN1 | > 100 µM | > 100 µM | > 100 µM | > 100 µM | 31.6 µM | > 100 µM | > 100 µM | > 100 µM | > 100 µM | > 100 µM |  |  |

| Structure (SMILES) | TGI (EKVX NSCLC) | TGI (SNB-75 CNS) | TGI (OVCAR-5 ovarian) | TGI (SNB-19 CNS) | TGI (K-562 leukemia) | TGI (HOP-62 NSCLC) | TGI (COLO 205 colon) | TGI (OVCAR-8 ovarian) | TGI (HCC-2998 colon) | TGI (SR leukemia) | GI50 (K-562 leukemia) | GI50 (SR leukemia) |
| --- | --- | --- | --- | --- | --- | --- | --- | --- | --- | --- | --- | --- |
| O=C(NCCCCNCCCNC(=O)C(F)(F)F)C(F)(F)F | > 100 µM | > 100 µM | > 100 µM | > 100 µM | > 100 µM | > 100 µM | > 100 µM | > 100 µM | > 100 µM | > 100 µM |  |  |
| CNC=O | > 10000 µM | > 10000 µM | > 10000 µM | > 10000 µM | > 10000 µM | < 3980 µM | > 10000 µM | > 10000 µM | < 3980 µM | > 10000 µM |  |  |
| Cc1ccc(N2C(=O)CC(=O)N(NC(=O)C(C)Oc3ccccc3C)C2=S)cc1 (configuration not stated) | > 100 µM | > 100 µM | > 100 µM | > 100 µM | > 100 µM | > 100 µM | > 100 µM | > 100 µM | > 100 µM | > 100 µM |  |  |
| O=C(O)c1cc2c(cc1S(=O)(=O)O)C1C(C3C2C2(Cl)C(Cl)=C(Cl)C3(Cl)C2(Cl)Cl)C2(Cl)C(Cl)=C(Cl)C1(Cl)C2(Cl)Cl (configuration not stated) | > 100 µM | > 100 µM | 70 µM | > 100 µM | > 100 µM | 89.1 µM | > 100 µM | > 100 µM | 51.2 µM | 74.7 µM |  |  |
| COc1ccc2c(-c3ccc(O)cc3)c(Oc3ccccc3)c(=O)oc2c1 | > 77.8 µM | > 66.5 µM | > 100 µM | > 53.7 µM | > 100 µM | > 100 µM | > 100 µM | > 100 µM | > 69.3 µM | > 23.4 µM |  |  |
| CC1C=C(NCC2(CO)CCC2)NC(N)=N1 (configuration not stated) | > 100 µM | > 100 µM | > 100 µM | > 100 µM | > 100 µM | > 100 µM | > 100 µM | > 100 µM | > 100 µM | > 100 µM |  |  |
| COc1ccc(C2c3cc4c(cc3OC(N3CCOCC3)C2C)OCO4)c(OC)c1 (configuration not stated) | > 85.3 µM | 23.4 µM | 73.9 µM | 28.9 µM | 25 µM | 31.5 µM | > 57.6 µM | > 74.7 µM | 14.5 µM | > 68 µM |  |  |
| O=C1CNc2cc(N3CCN(c4cccc(C(F)(F)F)c4)CC3)ccc2N1 | > 100 µM | > 100 µM | > 100 µM | > 100 µM | > 100 µM | > 100 µM | > 91.7 µM | > 100 µM | > 100 µM | > 100 µM | 9 µM |  |
| CC1=NN(C(=O)CC(=O)Nc2cccc(Cl)c2)C(=O)C1N=Nc1ccc(S(=O)(=O)c2ccc(N=NC3C(=O)N(C(=O)CC(=O)Nc4cccc(Cl)c4)N=C3C)cc2)cc1 (configuration not stated) | > 100 µM | > 100 µM | > 100 µM | > 100 µM | > 100 µM | > 100 µM | > 100 µM | > 100 µM | > 100 µM | > 100 µM |  |  |
| C=CC1(CBr)CCC(C(C)(C)Br)O1 (configuration not stated) | 32.1 µM | 20.4 µM | 27.9 µM | 30.1 µM | > 25.9 µM | 30 µM | 20.6 µM | 9.45 µM | 30.5 µM | 8.58 µM |  |  |
| CCOC(=O)CC[C@@H](NC(=O)c1ccc(NCc2ccc3nc(OC)c(OC)nc3c2)cc1)C(=O)OCC | > 100 µM | 24.9 µM | > 100 µM | > 100 µM | > 100 µM | > 100 µM | 69.4 µM | > 100 µM | > 100 µM | > 87.4 µM |  |  |
| O/N=C1\CC2(N3CCOCC3)CCC1(Cc1ccccc1)CC2 | > 100 µM | 34.9 µM | > 100 µM | 63.5 µM | > 100 µM | 47.8 µM | > 100 µM | 48.1 µM | > 100 µM | > 100 µM |  |  |
| COc1ccc(CN=C2Nc3ccncc3S(=O)(=O)N2c2ccccc2)cc1 | > 100 µM | > 100 µM | > 100 µM | > 100 µM | 93.2 µM | > 100 µM | > 100 µM | > 100 µM | 54.9 µM | 73.3 µM |  |  |
| CCCCCC(/C=N/NC(N)=S)C(O)(C(F)(F)F)C(F)(F)F (configuration not stated) | > 10 µM | > 10 µM | > 10 µM | > 10 µM | > 10 µM | > 10 µM | > 10 µM | > 10 µM | > 10 µM | > 10 µM |  |  |
| CC(C)(N=NC(C)(C)C1=NCCN1)C1=NCCN1 | > 100 µM | > 100 µM | > 100 µM | > 100 µM | > 100 µM | > 100 µM | > 100 µM | > 100 µM | > 100 µM | > 100 µM |  | > 100 µM |
| O=[N+]([O-])/C(C(Cl)=C(Cl)Cl)=C(/Sc1ccccc1)N1CCOCC1 | 25.7 µM | 24.4 µM | 31 µM | 20.2 µM | 3.89 µM | 33.5 µM | 11 µM | 4.06 µM | 29.9 µM | 5.62 µM |  |  |
